Reference: article PMC11620503 (Antimicrobial Agents and Chemotherapy, 2024)
≈ marks a conversion by molar mass, not a printed value. Read-outs that look alike come from different tables or passages of the source.

Legend:
[1] = tested on: Clostridioides difficile ATCC BAA-1803; assay: MIC, agar dilution, reference strains of anaerobic bacteria; assay type: cell-based; settings: ATCCBAA1803
[2] = tested on: Bulleidia extructa KUB3013; assay: as above; assay type: cell-based
[3] = tested on: Bacteroides thetaiotaomicron ATCC 29741; assay: as above; assay type: cell-based; settings: ATCC29741
[4] = Intrinsic antibacterial activity, MIC; assay type: cell-based
NDM-4 = NDM-4 (Klebsiella pneumoniae, UniProt C7C422, M154L); assay: Ki app determination (Waley's method)
[5] = tested on: Bacteroides fragilis KUB2982; assay: MIC, agar dilution, reference strains of anaerobic bacteria; assay type: cell-based
[6] = biological target: class A carbapenemase KPCs; assay: Ki app determination, range over enzymes; settings: read-out: Ki app values, range
[7] = tested on: Bacteroides ovatus KUB3009; assay: MIC, agar dilution, reference strains of anaerobic bacteria; assay type: cell-based
[8] = tested on: the other seven anaerobic strains; assay: Intrinsic antibacterial activity, MIC agar dilution; assay type: cell-based
Description: MICs were determined by the broth microdilution method and agar dilution method (for anaerobic bacteria only) according to CLSI ([37], [38]). When investigating the effect of HSA on the MICs, CAMHB with 4% HSA (FUJIFILM Wako Pure Chemical Corporation) was used. […] The MBC was defined as the lowest drug concentration at which ≥99.9% of the original inoculum was killed.

NDM-7 = NDM-7 (Klebsiella pneumoniae, UniProt C7C422, D130N/M154L); assay: Ki app determination (Waley's method)
KPC-38 = KPC-38 (Klebsiella pneumoniae, UniProt Q9F663); assay: Ki app determination (Waley's method); settings: read-out: Ki app, means from three independent studies
[9] = tested on: Actinomyces odontolyticus ATCC 17929; assay: MIC, agar dilution, reference strains of anaerobic bacteria; assay type: cell-based; settings: Schaalia odontolytica, ATCC17929
[10] = tested on: Prevotella intermedia KUB2991; assay: as above; assay type: cell-based
Olsenella uli KUB3012 = assay: as above; assay type: cell-based
IMP-1 = IMP-1 (Serratia marcescens, UniProt P52699); assay: Ki app determination (Waley's method)
Atopobium rimae KUB3014 = assay: MIC, agar dilution, reference strains of anaerobic bacteria; assay type: cell-based; settings: Lancefieldella rimae
[11] = tested on: Clostridioides difficile ATCC BAA-1870; assay: as above; assay type: cell-based; settings: ATCCBAA1870
[12] = tested on: Clostridioides difficile ATCC 700057; assay: as above; assay type: cell-based; settings: ATCC700057
SHV-2 = SHV-2 (Klebsiella pneumoniae, UniProt P0A9Z8); assay: Ki app determination (Waley's method)
[13] = tested on: Fusobacterium nucleatum ATCC 25586; assay: MIC, agar dilution, reference strains of anaerobic bacteria; assay type: cell-based; settings: ATCC25586
NDM-6 = NDM-6 (Klebsiella pneumoniae, UniProt C7C422, A233V); assay: Ki app determination (Waley's method)
OXA-65 = OXA-65 (Acinetobacter baumannii, UniProt Q58XD3); assay: Ki app determination (Waley's method)
[14] = tested on: Prevotella melaninogenica KUB3005; assay: MIC, agar dilution, reference strains of anaerobic bacteria; assay type: cell-based
VIM-2 = VIM-2 (Escherichia coli, UniProt Q5U7L7); assay: Ki app determination (Waley's method)
[15] = tested on: E. coli ATCC BAA-2469 (NDM-1); assay: Lethal mouse model of systemic infection; settings: Escherichia coli, ATCCBAA2469, in Mus musculus, sc
[16] = tested on: Enterobacterales (154), CDC AR Bank; assay: MIC, broth microdilution; assay type: cell-based
[17] = tested on: Klebsiella pneumoniae ATCC BAA-2344 (KPC-2); assay: MIC, broth microdilution; assay type: cell-based; settings: K. pneumoniae ATCC BAA-2344, agent alone
[18] = tested on: A. baumannii CDC-303 (OXA-23, 66); assay: Lethal mouse model of systemic infection; settings: Acinetobacter baumannii, in Mus musculus, sc, read-out: ED50 of MEM, extrapolated from the probit analysis
[19] = tested on: P. aeruginosa CDC-110 (VIM-2); assay: Lethal mouse model of systemic infection; settings: Pseudomonas aeruginosa, in Mus musculus, sc, read-out: ED50 of MEM (95% confidence intervals)
[20] = tested on: P. aeruginosa CDC-110 (VIM-2); assay: MIC, broth microdilution; assay type: cell-based; settings: Pseudomonas aeruginosa, agent alone
[21] = CLSI breakpoints, marked c: breakpoints for β-lactam alone
[22] = fixed concentration (μg/mL) in label

Q: For `N[C@@H](C(=O)N1CC(Oc2ccc3c(c2C(=O)O)OB(O)CC3)C1)c1c[nH]cn1` [KSP-1007, 7-({1-[(2R)-2-amino-2-(1H-imidazol-4-yl)acetyl]azetidin-3-yl}oxy)-2-hydroxy-3,4-dihydro-2H-1,2-benzoxaborinine-8-carboxylic acid], which MIC [1] is on record?
A: > 256 µg/mL

Q: And the MIC [2]?
A: 32 µg/mL (≈ 82.9 µM)

Q: What about the MIC [3] of the same compound?
A: 64 µg/mL (≈ 166 µM)

Q: And the MIC [4]?
A: ≥ 64 µg/mL

Q: And the Ki (NDM-4)?
A: 153 ± 45.2 nM

Q: And the MIC [5]?
A: 16 µg/mL (≈ 41.4 µM)

Q: What about the Ki [6] of the same compound?
A: 0.836 to 2.19 nM

Q: And the MIC [7]?
A: 128 µg/mL (≈ 331 µM)

Q: And the MIC [8]?
A: > 256 µg/mL

Q: And the Ki (NDM-7)?
A: 53 ± 30.2 nM

Q: And the Ki (KPC-38)?
A: 0.836 ± 0.414 nM

Q: What about the MIC [9] of the same compound?
A: 256 µg/mL (≈ 663 µM)

Q: What about the MIC [10] of the same compound?
A: 4 µg/mL (≈ 10.4 µM)

Q: And the MIC (Olsenella uli KUB3012)?
A: 64 µg/mL (≈ 166 µM)

Q: What about the Ki (IMP-1) of the same compound?
A: 512 ± 119 nM

Q: And the MIC (Atopobium rimae KUB3014)?
A: 8 µg/mL (≈ 20.7 µM)

Q: What about the MIC [11] of the same compound?
A: > 256 µg/mL

Q: What about the MIC [12] of the same compound?
A: > 256 µg/mL

Q: And the Ki (SHV-2)?
A: 361 ± 127 nM

Q: What about the MIC [13] of the same compound?
A: 32 µg/mL (≈ 82.9 µM)

Q: What about the Ki (NDM-6) of the same compound?
A: 1050 nM

Q: What about the Ki (OXA-65) of the same compound?
A: 5.44 ± 1.21 nM

Q: And the MIC [14]?
A: 4 µg/mL (≈ 10.4 µM)

Q: And the Ki (VIM-2)?
A: 1210 nM

Q: With `C[C@@H](O)[C@H]1C(=O)N2C(C(=O)O)=C(S[C@@H]3CN[C@H](C(=O)N(C)C)C3)[C@H](C)[C@H]12` [MEM, meropenem] as the compound, how does the ED50 ([15]; read-out: ED50 of MEM (95% confidence intervals), E. coli ATCC BAA-2469, Experiment 1, single sc dose, survival day 7, dose ratio in label) read?
A: 103 mg/kg

Q: And the ED50 ([15]; read-out: ED50 of MEM (95% confidence intervals), E. coli ATCC BAA-2469, Experiment 2, single sc dose, survival day 7, dose ratio in label)?
A: 118 mg/kg

Q: And the “CLSI MIC interpretation I (intermediate)” value [16, 21]?
A: 9.7%

Q: What about the “CLSI MIC interpretation R (resistant)” value [16, 21] of the same compound?
A: 50%

Q: What about the “CLSI MIC interpretation S (susceptible)” value [16, 21] of the same compound?
A: 40.3%

Q: And the MIC50 [16, 22]?
A: 2 µg/mL (≈ 5.22 µM)

Q: And the MIC90 [16, 22]?
A: 32 µg/mL (≈ 83.4 µM)

Q: What about the MIC ([17]; Experiment 1) of the same compound?
A: 16 to 32 µg/mL

Q: What about the MIC ([17]; Klebsiella pneumoniae, ATCCBAA2344, Experiment 2, read-out: MIC) of the same compound?
A: 16 to 32 µg/mL (≈ 41.7 to 83.4 µM)

Q: And the ED50 [18]?
A: 6550 mg/kg

Q: And the ED50 [19]?
A: 218 mg/kg

Q: What about the MIC [20] of the same compound?
A: 64 µg/mL (≈ 167 µM)
